Experiments:
CYP2C9 = CYP2C9 (Homo sapiens, UniProt P11712); experiment: CYP inhibition CYP2C9 (CEREP); format: in vitro ADME; conditions: single concentration (typically 10 μM)
Procedure: (§1) All the assays were conducted at CEREP (CEREP, France and USA). Metabolic compound stability was tested in human (CEREP, Ref 607) and mouse (CEREP, Ref: 806) microsomes. Inhibition of human drug-metabolizing cytochromes P450 was tested on the five most commonly responsible enzymes of metabolism of xenobiotics, CYP1A2 (CEREP, Ref 389), CYP2C9 (CEREP, Ref 412), CYP2C19 (CEREP, Ref 390), CYP2D6 (CEREP, Ref 1338) and CYP3A4 (CEREP, Ref 391).
(§2) Briefly, CEREP's CYP inhibition assay uses traditional probe substrates, which are specific to individual CYP isoforms. 3-cyano-7-ethoxycoumarin is mainly catalyzed by CYP1A2 and CYP2C19, 3-[2-(N,N-diethyl-N-methylammonium)ethyl]-7-methoxy-4-methylcoumarin for CYP2C9 and CYP2D6 and finally, 7-benzyloxy-4-trifluoromethylcoumarin is pathway catalyzed predominantly by CYP3A4. The inhibition assays were performed with human recombinant CYP isoforms preparations. HPLC MS/MS methods are used to detect metabolites in these assays. Compounds were tested at single concentrations (typically 10 μM) and data were expressed as percent of control inhibition.

[1] = Microsomal stability, mouse microsomes (CEREP); format: in vitro ADME; conditions: 0.1 μM, 0.1 mg/mL microsomal protein
Procedure: as §1
(§3) Briefly, the standard conditions for CEREP's stability assays include incubation of test compound at 0.1 μM with human or mouse microsomes for 60 minutes in duplicate. The protein concentration of microsomes is 0.1 mg/mL. The parent compound is detected by HPLC-MS/MS analysis. The quantity of the parent compound that remains intact upon 60 minutes of microsome exposure (% remaining) is calculated by comparing the peak area of the parent compound at 60 minutes of exposure to the time zero.

CYP3A4 = CYP3A4 (Homo sapiens, UniProt P08684); experiment: CYP inhibition CYP3A4 (CEREP); format: in vitro ADME; conditions: single concentration (typically 10 μM)
Chain of CYP3A4 (P08684 whole entry): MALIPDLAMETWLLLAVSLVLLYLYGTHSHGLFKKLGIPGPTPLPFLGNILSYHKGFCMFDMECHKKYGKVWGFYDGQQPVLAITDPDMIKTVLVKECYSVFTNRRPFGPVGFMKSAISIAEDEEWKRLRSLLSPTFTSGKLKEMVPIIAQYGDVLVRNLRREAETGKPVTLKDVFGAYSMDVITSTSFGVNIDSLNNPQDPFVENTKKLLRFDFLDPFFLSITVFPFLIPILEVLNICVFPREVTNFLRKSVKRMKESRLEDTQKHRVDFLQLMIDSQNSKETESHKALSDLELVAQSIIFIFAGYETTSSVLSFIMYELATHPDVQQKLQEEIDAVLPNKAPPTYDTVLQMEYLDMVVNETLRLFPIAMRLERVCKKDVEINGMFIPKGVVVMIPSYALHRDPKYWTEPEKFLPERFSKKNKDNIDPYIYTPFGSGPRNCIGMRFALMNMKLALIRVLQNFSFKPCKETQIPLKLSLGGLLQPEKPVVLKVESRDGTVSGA
Procedure: as §1, §2

CYP2C19 = CYP2C19 (Homo sapiens, UniProt P33261); experiment: CYP inhibition CYP2C19 (CEREP); format: in vitro ADME; conditions: single concentration (typically 10 μM)
Chain of CYP2C19 (P33261 whole entry): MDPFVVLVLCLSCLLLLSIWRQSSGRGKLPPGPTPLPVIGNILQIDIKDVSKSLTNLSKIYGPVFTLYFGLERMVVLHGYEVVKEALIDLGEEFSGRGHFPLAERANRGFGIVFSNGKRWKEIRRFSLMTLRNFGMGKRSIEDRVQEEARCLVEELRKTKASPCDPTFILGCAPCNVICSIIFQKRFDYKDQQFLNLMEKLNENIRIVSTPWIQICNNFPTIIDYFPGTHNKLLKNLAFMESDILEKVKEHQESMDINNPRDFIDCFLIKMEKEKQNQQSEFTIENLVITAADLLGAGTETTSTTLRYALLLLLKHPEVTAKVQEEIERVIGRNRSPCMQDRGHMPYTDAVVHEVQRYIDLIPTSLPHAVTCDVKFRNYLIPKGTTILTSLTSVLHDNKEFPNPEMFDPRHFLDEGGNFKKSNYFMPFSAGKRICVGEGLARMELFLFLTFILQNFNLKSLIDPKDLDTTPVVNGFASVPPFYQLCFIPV
Procedure: as §1, §2

CYP2D6 = CYP2D6 (Homo sapiens, UniProt P10635); experiment: CYP inhibition CYP2D6 (CEREP); format: in vitro ADME; conditions: single concentration (typically 10 μM)
Chain of CYP2D6 (P10635 whole entry): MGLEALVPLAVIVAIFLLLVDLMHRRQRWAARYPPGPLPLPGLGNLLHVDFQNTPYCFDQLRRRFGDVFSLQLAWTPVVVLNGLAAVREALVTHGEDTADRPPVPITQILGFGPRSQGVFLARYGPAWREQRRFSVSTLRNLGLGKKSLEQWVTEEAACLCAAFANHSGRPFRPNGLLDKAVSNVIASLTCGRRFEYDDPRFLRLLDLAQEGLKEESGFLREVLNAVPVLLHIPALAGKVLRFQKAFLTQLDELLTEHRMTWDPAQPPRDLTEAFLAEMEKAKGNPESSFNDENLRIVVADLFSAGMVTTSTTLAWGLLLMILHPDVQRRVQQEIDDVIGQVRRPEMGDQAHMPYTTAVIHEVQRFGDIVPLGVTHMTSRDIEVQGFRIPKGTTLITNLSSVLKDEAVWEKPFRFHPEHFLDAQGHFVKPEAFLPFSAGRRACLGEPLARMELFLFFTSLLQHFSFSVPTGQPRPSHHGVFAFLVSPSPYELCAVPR
Procedure: as §1, §2

CYP1A2 = target: T1, CYP1A2 (Homo sapiens, UniProt P05177); experiment: CYP inhibition CYP1A2 (CEREP); format: in vitro ADME; conditions: human recombinant CYP, single concentration (typically 10 μM)
T1 sequence (P05177 1-516): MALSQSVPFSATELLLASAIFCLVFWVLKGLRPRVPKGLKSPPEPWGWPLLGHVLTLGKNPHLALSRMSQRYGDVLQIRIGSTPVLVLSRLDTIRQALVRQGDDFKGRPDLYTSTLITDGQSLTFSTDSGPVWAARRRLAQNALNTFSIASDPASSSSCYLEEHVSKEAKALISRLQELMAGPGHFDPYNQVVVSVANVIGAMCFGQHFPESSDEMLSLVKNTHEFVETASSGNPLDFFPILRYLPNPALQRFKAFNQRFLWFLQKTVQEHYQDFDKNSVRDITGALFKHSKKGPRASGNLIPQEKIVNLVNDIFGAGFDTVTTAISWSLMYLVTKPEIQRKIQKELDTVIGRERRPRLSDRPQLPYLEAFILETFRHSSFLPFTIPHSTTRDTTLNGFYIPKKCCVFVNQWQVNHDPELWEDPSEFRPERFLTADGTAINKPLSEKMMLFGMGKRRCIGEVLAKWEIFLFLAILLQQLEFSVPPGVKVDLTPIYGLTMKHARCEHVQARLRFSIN
Procedure: as §1, §2

[2] = Microsomal stability, human microsomes (CEREP); format: in vitro ADME; conditions: 0.1 μM, 0.1 mg/mL microsomal protein
Procedure: as §1, §3

MOG-induced EAE mice = experiment: MOG-induced EAE in mice, clinical score; format: in vivo
Procedure: 8-10 week old, male C57BL/6 mice were purchased from Janvier Lab (St Berthevin, France) and housed in a specific pathogen free (SPF) animal facility for one week before the start of the studies. Peptide antigen MOG35-55 (Myelin Oligodendrocyte Glycoprotein) ([…], SEQ ID NO:1, Polypeptide group, France) was dissolved in PBS and emulsified with an equal volume of Complete Freund's Adjuvant (CFA) containing 5 mg/mL of mycobacteria and administrated by subcutaneous injection at the dorsal flanks on day 0 at 200 μg/mouse. To ensure induction of reliable EAE, 200 ng of Bordetella pertussis toxin (Sigma) was given via intraperitoneal injection at day 0 and 2 (Cua, Sherlock et al. 2003; Zhang, Gran et al. 2003). Animals were treated with drug beginning 2 days before peptide injection. Animals were randomized into groups for treatment by weight, so that the average weight of each group was similar. The groups were segregated by cage. Compounds according to the invention were suspended in Carboxymethyl Cellulose (CMC) 1% (Sigma) and Tween80 0.1% (Sigma) by sonication and animals were dosed daily by gavage with 10 mL/kg body weight. The daily dose of Cpd. 1 was 30 mg/kg and vidofludimus (reference compound) at 60 mg/kg in protocol 1 to assess IL-17 A and IL-17F secretion from splenocytes ex vivo. In protocol 2, mice were treated with Cpd. 1 at 3 and 10 mg/Kg or T4 compound at 1 and 10 mg/kg daily by gavage to assess the clinical score. Clinical assessment of EAE was performed daily according to the following criteria: 0) no disease, 1) limp tail, 2) weak/partially paralyzed hind legs, 3) completely paralyzed hind legs, 4) complete hind and partial front leg paralysis, and 5) complete paralysis/death. For Cytokine quantifications, mice were euthanized 20 days after EAE induction. Spleen-isolated cells were collected and adjusted to 2×10^6 cells/mL. Cells were cultured in complete RPMI medium (RPMI supplemented with 10% of fetal calf serum, 1% glutamine, and 1% penicillin/streptomycin). Spleen cells were stimulated with MOG (20 μg/mL) (Polypeptide group, France). Cytokine levels were evaluated 48 h later by ELISA (R&D Systems Europe) or HTRF (CisBio, France) in culture supernatants using IL-17A and IL-17-F according to the manufacturer's protocols. The statistical significance was based on Student's t test (p<0.05, unpaired test).

multiple sclerosis model = conditions: administered by injection; cited from earlier work
psoriasis model = conditions: administered by injection; cited from earlier work
[3] = test system: refractory Crohn diseased patients; conditions: phase IIb; cited from earlier work

Chain of CYP2C9 (P11712 whole entry): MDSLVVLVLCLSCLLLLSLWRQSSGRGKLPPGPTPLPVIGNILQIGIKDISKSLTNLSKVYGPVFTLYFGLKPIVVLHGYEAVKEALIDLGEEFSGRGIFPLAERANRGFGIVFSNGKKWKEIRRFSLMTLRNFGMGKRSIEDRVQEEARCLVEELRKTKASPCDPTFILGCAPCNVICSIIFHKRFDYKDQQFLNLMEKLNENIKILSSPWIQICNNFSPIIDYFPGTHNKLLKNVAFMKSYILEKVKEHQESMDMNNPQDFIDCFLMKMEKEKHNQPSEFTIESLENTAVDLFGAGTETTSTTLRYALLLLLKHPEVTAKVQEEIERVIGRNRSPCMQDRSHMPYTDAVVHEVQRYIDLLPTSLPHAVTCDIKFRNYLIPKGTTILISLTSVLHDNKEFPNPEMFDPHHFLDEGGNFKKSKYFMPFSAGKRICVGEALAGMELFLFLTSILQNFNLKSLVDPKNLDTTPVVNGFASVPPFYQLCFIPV

Question: What does the source list for `Cc1ccc(C(NC(=O)Cc2ccc3oc(C(O)c4c(C)noc4C)cc3c2)c2ccccc2)c(C)c1` (single isomer, unassigned) [Cpd. T-3, 2-(2-(hydroxy(3,5-dimethylisoxazol-4-yl)methyl)benzofuran-5-yl)-N-((2,4-dimethylphenyl)(phenyl)methyl)acetamide, reference compound]?
Answer: CYP 2C9 (% inhibition of Control) (CYP2C9; human recombinant CYP): 75%; Mouse microsomes (% Cpd. remaining at 60 min) [1]: 0%; CYP 3A4 (% inhibition of Control) (CYP3A4; human recombinant CYP): 93%; CYP 2C19 (% inhibition of Control) (CYP2C19; human recombinant CYP): 92%; CYP 2D6 (% inhibition of Control) (CYP2D6; human recombinant CYP): 19%; CYP 1A2 (% inhibition of Control) (CYP1A2): −5%; Human microsomes (% Cpd. remaining at 60 min) [2]: 0%

Question: With `Cc1ccc(C(NC(=O)Cc2ccc3oc(C(O)c4c(C)noc4C)cc3c2)c2ccccc2)c(C)c1` (single isomer, unassigned) [Cpd. T-4, 2-(2-(hydroxy(3,5-dimethylisoxazol-4-yl)methyl)benzofuran-5-yl)-N-((2,4-dimethylphenyl)(phenyl)methyl)acetamide, reference compound] as the molecule, how does the inhibition at 10 µM (CYP2C9; human, recombinant CYP2C9, human recombinant CYP, read-out: CYP 2C9 (% inhibition of Control)) read?
Answer: Its inhibition at 10 µM is 73%.

Question: And the EAE clinical score (MOG-induced EAE mice; daily by gavage, Cpd. 1 at 3 and 10 mg/Kg, T4 compound at 1 and 10 mg/kg)?
Answer: The EAE clinical score was “wasn't effective”.

Question: What about the “Mouse microsomes (% Cpd. remaining at 60 min)” value [1] of the same molecule?
Answer: Its value is 0%.

Question: What about the inhibition at 10 µM (CYP3A4; human, recombinant CYP3A4, probe 7-benzyloxy-4-trifluoromethylcoumarin, read-out: CYP 3A4 (% inhibition of Control)) of the same molecule?
Answer: The inhibition at 10 µM was 82%.

Question: What about the inhibition at 10 µM (CYP2C19; human, recombinant CYP2C19, probe 3-cyano-7-ethoxycoumarin, read-out: CYP 2C19 (% inhibition of Control)) of the same molecule?
Answer: Its inhibition at 10 µM is 85%.

Question: And the inhibition at 10 µM (CYP2D6; human, recombinant CYP2D6, human recombinant CYP, read-out: CYP 2D6 (% inhibition of Control))?
Answer: The inhibition at 10 µM was 31%.

Question: And the “CYP 1A2 (% inhibition of Control)” value (CYP1A2)?
Answer: Its value is −3%.

Question: What about the “Human microsomes (% Cpd. remaining at 60 min)” value [2] of the same molecule?
Answer: Its value is 0%.

Question: For `CC(=O)Nc1nc(C)c(S(=O)(=O)Nc2ccc(C(O)(C(F)(F)F)C(F)(F)F)cc2)s1` [SR1001], which “efficacy in multiple sclerosis model” value (multiple sclerosis model) is on record?
Answer: The value was “efficacious”.

Question: For `Cc1ccc([C@@H](NC(=O)Cc2ccc3oc([C@@H](O)c4c(C)noc4C)cc3c2)c2ccccc2)c(C)c1` [TMP778], which “efficacy in psoriasis model” value (psoriasis model) is on record?
Answer: Its value is “efficacious”.

Question: With `Cc1ccc(C(NC(=O)Cc2ccc3oc(C(O)c4c(C)noc4C)cc3c2)c2ccccc2)c(C)c1` (centres unmarked) [compound T, 2-(2-(hydroxy(3,5-dimethylisoxazol-4-yl)methyl)benzofuran-5-yl)-N-((2,4-dimethylphenyl)(phenyl)methyl)acetamide, reference compound] as the molecule, how does the “onset of EAE” value (MOG-induced EAE mice; administered p/os (orally) for 20 days) read?
Answer: Its value is “ineffective”.

Question: What about the “efficacy in psoriasis model” value (psoriasis model) of the same molecule?
Answer: The value was “efficacious”.

Question: With “Ustekinumab: anti-p40 monoclonal antibody that targets Th17 and Th1 through IL-23 and IL-12” as the molecule, how does the “clinical efficacy in refractory Crohn diseased patients” value [3] read?
Answer: The value was “clinical (phase IIb) efficacy”.

Source: patent US9902725B2, “Heterocyclic derivatives as RORgamma modulators” (GENFIT, priority 2014, dated 2018)
